Key:
[1] = test system: Atg5 deficient cells (Atg5−/−); assay: Autophagy induction in Atg5 deficient MEFs; format: cell-based, mouse
[2] = test system: Atg5+/+ murine embryonic fibroblasts; assay: Lipid droplet number in Atg5+/+ MEFs; format: cell-based, mouse; conditions: 24 hr
Description: Cells were grown on coverslips then treated with drug for 24 hours. Cells were fixed in 4% paraformaldehyde for 15 min, rinsed with PBS. Cells were washed with a 1% saponin solution for 15 min at room temperature then washed several times in PBS to remove detergent. Cells were then incubated in Bodipy (ThermoFisher #D3922) at a final concentration of 1 uM for 10 min. Bodipy was removed and slides were rinsed with PBS then air dried and mounted on slides using Dako mounting media with Dapi.

SN12C cells = assay: Apoptosis (Caspase 3/7-Glo), SN12C; format: cell-based, human; conditions: 72 h
Description: (§1) Apoptosis was determined using Caspase 3/7-Glo assay kit (Promega) following the manufacturer's instructions. Briefly, 2000 cells per well were plated in 96 well plates and cultured for 72 h. […] Caspase 3/7 activity was measured using a luminometer. Luminescence values were normalized by cell numbers.

[3] = test system: human RCC and MPN cell lines; assay: Suppression of JAK and STAT3 phosphorylation; format: cell-based; conditions: multiple human RCC and MPN cell lines
Description: Cells were plated in 6 well dishes and treated the following day with the indicated agents. Treatments were for 24 hours, after which cells were washed with ice cold PBS and lysed with RIPA buffer (Sigma). Phosphatase inhibitor cocktail set II and protease inhibitor cocktail set III (EMD Millipore) were added at the time of lysis. Lysates were centrifuged at 15,000 g×10 min at 4 degrees C. Protein concentrations were calculated based on a BCA assay (Thermo Scientific) generated standard curve. Proteins were resolved using the NuPAGE Novex Mini Gel system on 4% to 12% Bis-Tris Gels (Invitrogen). For western blotting, equal amounts of cell lysates (15-20 μg of protein) were resolved with SDSPAGE, and transferred to membranes. The membrane was probed with primary antibodies, washed, and then incubated with corresponding fluorescent secondary antibodies and washed. The fluorescent signal was captured using LI-COR (Lincoln, Nebr.) Odyssey Imaging System, and fluorescent intensity was quantified using the Odyssey software where indicated. The following antibodies were used for Western blots: p-S6 (S240/244), S6, LC3B, p-Akt(S473), p-Akt(T308), Akt, cleaved caspase3 (Cell Signaling Technologies). p-Stat3 (Y705), Stat3 and β-actin (AC15) (Abcam). Ki67 (Dako) and cleaved caspase3 (Cell Signaling Technologies) were used for immunohistochemistry. […] BX795 and GDC0941 were purchased from Sigma.

ACHN cells = assay: Apoptosis (Caspase 3/7-Glo), ACHN; format: cell-based, human; conditions: ACHN, 72 h
Description: as §1

## N#CCNC(=O)c1ccc(-c2ccnc(Nc3ccc(N4CCOCC4)cc3)n2)cc1 [CYT387]
[1]
  autophagy induction: did not induce autophagy
[2]
  LD numbers: significantly increase LD numbers
SN12C cells
  apoptosis (cleaved-caspase 3/7): little or no effect on apoptosis
[3]
  phosphorylation of JAK and STAT3: effective in suppressing the phosphorylation of JAK and STAT3
ACHN cells
  apoptosis (cleaved-caspase 3/7): little or no effect on apoptosis

From patent US20190142835A1, “INHIBITION OF AUTOPHAGY USING PHOSPHOLIPASE A2 INHIBITORS” (OREGON HEALTH & SCIENCE UNIVERSITY, priority 2017, published 2019)
